Laboratory results reported in ChEMBL document CHEMBL5154682, “TDP-43 Modulation by Tau-Tubulin Kinase 1 Inhibitors: A New Avenue for Future Amyotrophic Lateral Sclerosis Therapy” (J Med Chem, 2022).
Activity calls are given as the source filed them. No cut-off for these calls is given here.

Experiments:
[1] = Cmax in BALB/c mouse brain at 5 mg/kg, ip measured for 0.08 to 24 hrs by LC-MS/MS analysis; format: ADME, organism-based; set-up: dose 5 mg/kg, time upper 24 hrs, time lower 0.08 hrs, route ip
[2] = AUClast in BALB/c mouse brain at 5 mg/kg, ip measured for 0.08 to 24 hrs by LC-MS/MS analysis; format: ADME, organism-based; set-up: dose 5 mg/kg, time 0.08-24 hrs, route ip
[3] = Half life in BALB/c mouse plasma at 10 mg/kg, po measured for 0.25 to 24 hrs by LC-MS/MS analysis; format: ADME, organism-based; conditions: time 0.25-24 hrs
Tau-tubulin kinase 1 [4] = molecular target: T1, Tau-tubulin kinase 1 (Homo sapiens, UniProt Q5TCY1); experiment: Inhibition of recombinant human TTBK1 in ethacrynic acid-treated human SH-SY5Y cells assessed as nuclear localization by measuring reduction in cytosolic TDP-43 accumulation at 5 uM preincubated for 1 hr followed by EA addition and further incubated for 24 hrs by confocal laser scanning microscopy; conditions: time 25.0 hrs
[5] = Cmax in BALB/c mouse plasma at 10 mg/kg, po measured for 0.25 to 24 hrs by LC-MS/MS analysis; format: ADME, organism-based; set-up: time upper 24 hrs, time lower 0.25 hrs, dose 10 mg/kg, route po
Mus musculus [6] = experiment: Protection of neuron degeneration in Prp-hTDP-43 (A315T) transgenic mouse assessed as prevention of reduction in number of motor neurons in ventral horn of spinal cord at 5 mg/kg, ip qd for 30 days by choline acetyl transferase staining based immunohistochemistry analysis; format: functional, organism-based; conditions: time 30.0 day
[7] = Tmax in BALB/c mouse brain at 10 mg/kg, po measured for 0.25 to 24 hrs by LC-MS/MS analysis; format: ADME, organism-based; conditions: time 0.25-24 hrs
Mus musculus [8] = experiment: Immunomodulatory effect in Prp-hTDP-43 (A315T) transgenic mouse assessed as increase in […] expression in lumbar region of spinal cord at 5 mg/kg, ip qd for 30 days by western blot analysis; format: functional, organism-based; conditions: time 30.0 day
[9] = Tmax in BALB/c mouse brain at 5 mg/kg, ip measured for 0.08 to 24 hrs by LC-MS/MS analysis; format: ADME, organism-based; conditions: time 0.08-24 hrs
Mus musculus [10] = experiment: Immunomodulatory effect in Prp-hTDP-43 (A315T) transgenic mouse assessed as reduction in iNOS expression in lumbar region of spinal cord at 5 mg/kg, ip qd for 30 days by Western blot analysis; format: functional, organism-based; conditions: time 30.0 day
[11] = Permeability in BALB/c mouse assessed as brain to plasma ratio at 10 mg/kg, po measured for 0.25 to 24 hrs by LC-MS/MS analysis; format: ADME, organism-based; conditions: time 0.25-24 hrs
[12] = Half life in BALB/c mouse brain at 5 mg/kg, ip measured for 0.08 to 24 hrs by LC-MS/MS analysis; format: ADME, organism-based; conditions: time 0.08-24 hrs
[13] = Cmax in BALB/c mouse brain at 10 mg/kg, po measured for 0.25 to 24 hrs by LC-MS/MS analysis; format: ADME, organism-based; set-up: dose 10 mg/kg, time upper 24 hrs, time lower 0.25 hrs, route po
[14] = Half life in BALB/c mouse brain at 10 mg/kg, po measured for 0.25 to 24 hrs by LC-MS/MS analysis; format: ADME, organism-based; conditions: time 0.25-24 hrs
[15] = Permeability of the compound at pH 7.4 PBS/EtOH buffer (70:30) by PAMPA-BBB assay
[16] = Half life in BALB/c mouse plasma at 5 mg/kg, ip measured for 0.08 to 24 hrs by LC-MS/MS analysis; format: ADME, organism-based; conditions: time 0.08-24 hrs
[17] = AUClast in BALB/c mouse brain at 10 mg/kg, po measured for 0.25 to 24 hrs by LC-MS/MS analysis; format: ADME, organism-based; set-up: dose 10 mg/kg, time 0.25-24 hrs, route po
Mus musculus [18] = experiment: Prevention of TDP-43 phosphorylation level in Wild type mouse at lumbar region of spinal cord tissue at 5 mg/kg, ip qd for 30 days by Immunoblot assay; format: functional, organism-based; conditions: time 30.0 day
[19] = Cmax in BALB/c mouse plasma at 5 mg/kg, ip measured for 0.08 to 24 hrs by LC-MS/MS analysis; format: ADME, organism-based; set-up: dose 5 mg/kg, time 0.08-24 hrs, route ip
SH-SY5Y [20] = experiment: Neuroprotective activity against ethacrynic acid-induced neurotoxicity human SH-SY5Y cells assessed as increase in cell viability at 5 uM preincubated for 1 hr followed by ethacrynic acid addition and further incubated for 24 hrs by MTT assay; format: functional, cell-based; conditions: time 25.0 hrs
[21] = Permeability coefficient in BALB/c mouse assessed as brain to plasma ratio at 5 mg/kg, ip measured for 0.08 to 24 hrs by LC-MS/MS analysis; format: ADME, organism-based; conditions: time 0.08-24 hrs
Tau-tubulin kinase 1 [22] = molecular target: T1, Tau-tubulin kinase 1; experiment: Inhibition of TTBK1 in sporadic ALS patient derived human lymphoblasts assessed as recovery nuclear localization of TDP-43 levels at 5 to 10 uM treated for 24 hrs by Western blot analysis; format: cell-based; conditions: Lymphoblastoid cell, dose 5-10 µM
Mus musculus [23] = experiment: Immunomodulatory effect in Prp-hTDP-43 (A315T) transgenic mouse assessed as decrease in Iba-1 immunoreactivity in microglial cells at 5 mg/kg, ip qd for 30 days by immunofluorescence analysis; format: functional, organism-based; conditions: time 30.0 day
[24] = Tmax in BALB/c mouse plasma at 10 mg/kg, po measured for 0.25 to 24 hrs by LC-MS/MS analysis; format: ADME, organism-based; conditions: time 0.25-24 hrs
[25] = molecular target: Tau tubulin kinase 1 (Rattus norvegicus) (UniProt A0A0G2JTK1); experiment: Inhibition of TTBK1 in Wistar rat primary microglia assessed as reduction in LPS-stimulated iNOS induction at 5 to 25 uM measured after 24 hrs by western blot analysis; format: cell-based; conditions: dose 5-25 µM
SH-SY5Y [26] = experiment: Neuroprotective activity against ethacrynic acid-induced neurotoxicity human SH-SY5Y cells assessed as decrease in TDP-43 phosphorylation at Ser409 at 5 uM preincubated for 1 hr followed by EA addition and further incubated for 24 hrs by Western blot analysis; format: functional, cell-based; conditions: time 25.0 hrs
Mus musculus [27] = experiment: Protection of neuron degeneration in Prp-hTDP-43 (A315T) transgenic mouse assessed as prevention of reduction in number of motor neurons in ventral horn of spinal cord at 5 mg/kg, ip qd for 30 days by Nissl staining based immunohistochemistry analysis; format: functional, organism-based; conditions: time 30.0 day
[28] = Tmax in BALB/c mouse plasma at 5 mg/kg, ip measured for 0.08 to 24 hrs by LC-MS/MS analysis; format: ADME, organism-based; conditions: time 0.08-24 hrs
Mus musculus [29] = experiment: Immunomodulatory effect in Prp-hTDP-43 (A315T) transgenic mouse assessed as decrease in GFAP immunoreactivity in astrocytes at 5 mg/kg, ip qd for 30 days by immunofluorescence analysis; format: functional, organism-based; conditions: time 30.0 day
[30] = AUClast in BALB/c mouse plasma at 5 mg/kg, ip measured for 0.08 to 24 hrs by LC-MS/MS analysis; format: ADME, organism-based; set-up: dose 5 mg/kg, time 0.08-24 hrs, route ip
Tau-tubulin kinase 1 [31] = molecular target: T1, Tau-tubulin kinase 1; experiment: Inhibition of TTBK1 in sporadic ALS patient derived human lymphoblasts assessed as reduction in cytosolic TDP-43 levels at 5 to 10 uM treated for 24 hrs by Western blot analysis; format: cell-based; conditions: Lymphoblastoid cell, dose 5-10 µM
Tau-tubulin kinase 1 [32] = molecular target: T1, Tau-tubulin kinase 1; experiment: Inhibition of TTBK1 in sporadic ALS patient derived human lymphoblasts assessed as reduction in TDP-43 phosphorylation levels at 5 to 10 uM treated for 24 hrs by Western blot analysis; format: cell-based; conditions: Lymphoblastoid cell, dose 5-10 µM
[33] = AUClast in BALB/c mouse plasma at 10 mg/kg, po measured for 0.25 to 24 hrs by LC-MS/MS analysis; format: ADME, organism-based; set-up: dose 10 mg/kg, time upper 24 hrs, time lower 0.25 hrs, route po
SH-SY5Y [34] = experiment: Neuroprotective activity against okadaic acid-induced neurotoxicity in human SH-SY5Y cells assessed as reduction in Tau hyperphosphorylation by measuring cell viability at 1 to 5 uM incubated for 24 hrs by MTT assay; format: functional, cell-based; conditions: dose 1-5 µM

T1 sequence (Q5TCY1 whole entry): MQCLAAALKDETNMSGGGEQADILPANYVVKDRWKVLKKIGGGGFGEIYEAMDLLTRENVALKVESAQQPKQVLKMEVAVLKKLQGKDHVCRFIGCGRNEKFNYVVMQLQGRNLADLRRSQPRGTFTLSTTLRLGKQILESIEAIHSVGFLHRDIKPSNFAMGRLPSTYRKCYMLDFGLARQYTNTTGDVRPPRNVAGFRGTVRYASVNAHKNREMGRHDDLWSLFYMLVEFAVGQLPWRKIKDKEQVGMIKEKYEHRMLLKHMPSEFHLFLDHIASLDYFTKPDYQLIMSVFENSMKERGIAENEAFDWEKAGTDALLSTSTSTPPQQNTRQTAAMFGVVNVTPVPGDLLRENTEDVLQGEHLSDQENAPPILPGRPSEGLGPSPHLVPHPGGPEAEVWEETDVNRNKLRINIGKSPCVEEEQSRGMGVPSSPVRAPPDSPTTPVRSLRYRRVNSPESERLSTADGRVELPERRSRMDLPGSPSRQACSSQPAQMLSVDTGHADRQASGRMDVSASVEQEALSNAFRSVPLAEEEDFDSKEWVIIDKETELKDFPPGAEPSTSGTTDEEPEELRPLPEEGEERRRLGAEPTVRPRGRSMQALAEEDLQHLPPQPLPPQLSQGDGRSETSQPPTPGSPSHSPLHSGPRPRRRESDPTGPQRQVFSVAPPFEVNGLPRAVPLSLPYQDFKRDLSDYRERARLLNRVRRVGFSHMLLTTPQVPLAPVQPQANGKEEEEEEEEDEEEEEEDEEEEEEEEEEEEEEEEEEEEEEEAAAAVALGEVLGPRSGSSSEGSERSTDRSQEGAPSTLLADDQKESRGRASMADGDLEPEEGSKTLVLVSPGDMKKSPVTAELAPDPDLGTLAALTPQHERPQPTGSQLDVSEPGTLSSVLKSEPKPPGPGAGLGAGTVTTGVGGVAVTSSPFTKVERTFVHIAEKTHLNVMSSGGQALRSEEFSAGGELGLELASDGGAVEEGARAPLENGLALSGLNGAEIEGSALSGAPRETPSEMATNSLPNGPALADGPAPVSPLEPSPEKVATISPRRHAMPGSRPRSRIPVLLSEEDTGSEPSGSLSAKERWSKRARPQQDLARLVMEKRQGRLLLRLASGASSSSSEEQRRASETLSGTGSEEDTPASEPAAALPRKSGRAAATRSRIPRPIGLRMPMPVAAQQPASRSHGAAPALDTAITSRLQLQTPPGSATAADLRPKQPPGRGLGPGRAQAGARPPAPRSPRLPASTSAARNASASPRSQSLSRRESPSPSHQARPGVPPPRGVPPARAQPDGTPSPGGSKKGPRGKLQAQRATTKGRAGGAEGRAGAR
Sequence of Tau tubulin kinase 1 (Rattus norvegicus) (A0A0G2JTK1 as listed by the source): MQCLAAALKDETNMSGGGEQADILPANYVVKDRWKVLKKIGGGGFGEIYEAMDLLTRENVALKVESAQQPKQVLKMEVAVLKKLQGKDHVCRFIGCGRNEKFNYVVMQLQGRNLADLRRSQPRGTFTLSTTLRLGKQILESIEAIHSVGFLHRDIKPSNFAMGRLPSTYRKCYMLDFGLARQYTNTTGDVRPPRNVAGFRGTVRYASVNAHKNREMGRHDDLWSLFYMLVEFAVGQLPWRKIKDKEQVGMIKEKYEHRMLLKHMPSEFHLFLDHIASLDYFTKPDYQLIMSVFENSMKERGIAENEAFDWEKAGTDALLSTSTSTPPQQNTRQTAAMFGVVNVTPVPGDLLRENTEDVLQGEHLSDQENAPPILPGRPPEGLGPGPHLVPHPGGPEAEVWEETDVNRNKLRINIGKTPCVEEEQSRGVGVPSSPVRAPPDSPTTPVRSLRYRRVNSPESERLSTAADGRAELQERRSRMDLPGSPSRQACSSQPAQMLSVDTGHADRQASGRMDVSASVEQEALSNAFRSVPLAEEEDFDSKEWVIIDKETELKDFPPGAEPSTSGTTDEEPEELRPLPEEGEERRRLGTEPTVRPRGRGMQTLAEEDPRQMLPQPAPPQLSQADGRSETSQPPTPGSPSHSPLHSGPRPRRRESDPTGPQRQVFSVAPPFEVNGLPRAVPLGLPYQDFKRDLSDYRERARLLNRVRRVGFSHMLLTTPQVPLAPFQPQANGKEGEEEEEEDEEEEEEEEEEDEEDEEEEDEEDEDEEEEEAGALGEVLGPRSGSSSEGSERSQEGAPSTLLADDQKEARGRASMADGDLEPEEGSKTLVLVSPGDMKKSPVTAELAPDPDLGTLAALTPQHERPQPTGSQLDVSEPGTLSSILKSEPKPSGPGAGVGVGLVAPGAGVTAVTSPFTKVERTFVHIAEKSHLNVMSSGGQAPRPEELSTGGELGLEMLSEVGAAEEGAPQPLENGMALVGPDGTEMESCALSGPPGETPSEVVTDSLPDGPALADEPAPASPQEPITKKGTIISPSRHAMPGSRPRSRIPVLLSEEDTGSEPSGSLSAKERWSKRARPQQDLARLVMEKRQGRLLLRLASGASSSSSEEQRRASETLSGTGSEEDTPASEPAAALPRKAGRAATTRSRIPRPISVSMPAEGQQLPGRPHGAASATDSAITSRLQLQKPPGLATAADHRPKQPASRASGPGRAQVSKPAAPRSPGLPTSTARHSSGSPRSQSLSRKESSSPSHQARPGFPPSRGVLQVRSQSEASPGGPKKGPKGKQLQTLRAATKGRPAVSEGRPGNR

## Clc1ccc(Oc2ccc(Nc3ncnc4[nH]ccc34)cc2)cc1
[1]
  Cmax: 4170 ng/mL
[2]
  AUC(0-t): 15700 ng·h/mL
[3]
  half-life: 3.3 h
Tau-tubulin kinase 1 [4]
  inhibition: Active
[5]
  Cmax: 2270 ng/mL
Mus musculus [6]
  Activity: Active
[7]
  Tmax: 2 h
Mus musculus [8]
  Activity: Active
[9]
  Tmax: 1 h
Mus musculus [10]
  Activity: Active
[11]
  Kp: 2.67
[12]
  half-life: 3.46 h
[13]
  Cmax: 4920 ng/mL
[14]
  half-life: 3.4 h
[15]
  permeability: Permeable
[16]
  half-life: 3.75 h
[17]
  AUC(0-t): 49200 ng·h/mL
Mus musculus [18]
  Activity: Active
[19]
  Cmax: 1430 ng/mL
SH-SY5Y [20]
  Activity: Active
[21]
  Kp: 2.63
Tau-tubulin kinase 1 [22]
  Activity: Active
Mus musculus [23]
  Activity: Active
[24]
  Tmax: 2 h
[25]
  inhibition: Active
SH-SY5Y [26]
  Activity: Active
Mus musculus [27]
  Activity: Active
[28]
  Tmax: 1 h
Mus musculus [29]
  Activity: Active
[30]
  AUC(0-t): 5960 ng·h/mL
Tau-tubulin kinase 1 [31]
  Activity: Active
Tau-tubulin kinase 1 [32]
  Activity: Active
[33]
  AUC(0-t): 18400 ng·h/mL
SH-SY5Y [34]
  Activity: Active
